# Measured values: patent US20240391948A1, “NOVEL COMPOUND THAT INHIBITS TNF-ALPHA GENERATION AND INFLAMMASOME ACTIVITY AND PREPARATION METHOD THEREFOR” (SHAPERON INC., priority 2021, published 2024)
# Experiments:
# Format in all cases: cell-based
# [1] = test system: U937 cells (human monocytic cell line); assay: Pam2CSK4-induced TNF-α secretion inhibition in PMA-differentiated U937 cells; details: U-937, U937 cells differentiated with PMA, read-out: TNF-α production inhibition grade (IC50)
# Method in brief: (§1)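 U937 cells were PMA-differentiated into macrophages and treated with compound before inflammatory stimulus. TNF-α secretion was induced with Pam2CSK4 and IL-1β secretion with BzATP. IC50 (μM) values are graded A-D, with separate cut-offs per cytokine.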
# [2] = test system: J774A.1 (Mouse BALB/c monocyte macrophage cell line) cells; assay: LPS+ATP-induced IL-1β secretion inhibition in J774A.1 cells; details: J774.A1, 1 μM compound, graded compared to taurodeoxycholic acid (positive control), read-out: IL-1β production inhibition grade
# Method in brief: (§2)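 Mouse J774A.1 macrophages treated with 1 μM compound; TNF-α secretion measured after LPS stimulation and IL-1β secretion after LPS+ATP stimulation. Suppression graded against taurodeoxycholic acid: A over 100%, B 50–100%, C 20–50%, D under 20%.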
# [3] = test system: U937 cells (human monocytic cell line); assay: BzATP-induced IL-1β secretion inhibition in PMA-differentiated U937 cells; details: U-937, U937 cells differentiated with PMA, read-out: IL-1β production inhibition grade (IC50)
# Method in brief: as §1
# [4] = test system: J774A.1 (Mouse BALB/c monocyte macrophage cell line) cells; assay: LPS-induced TNF-α secretion inhibition in J774A.1 cells; details: J774.A1, 1 μM compound, graded compared to taurodeoxycholic acid (positive control), read-out: TNF-α production inhibition grade
# Method in brief: as §2
structure (smiles),measurement,setting,value
CC(C)[C@@H](CS(=O)(=O)O)NC(=O)CC[C@@H](C)[C@H]1CC[C@H]2[C@@H]3CC[C@@H]4C[C@H](O)CC[C@]4(C)[C@H]3CC[C@]12C [NC10067],IC50,[1],1 to 2 µM
same,inhibition at 1 µM,[2],< 20%
same,IC50,[3],≥ 0.2 µM
same,inhibition at 1 µM,[4],< 20%
CC(C)[C@H](CS(=O)(=O)O)NC(=O)CC[C@@H](C)[C@H]1CC[C@H]2[C@@H]3CC[C@@H]4C[C@H](O)CC[C@]4(C)[C@H]3CC[C@]12C [NC10068],IC50,[1],< 0.5 µM
same,inhibition at 1 µM,[2],> 100%
same,IC50,[3],< 0.05 µM
same,inhibition at 1 µM,[4],< 20%
C[C@H](CCC(=O)N[C@H](CS(=O)(=O)O)c1ccccc1)[C@H]1CC[C@H]2[C@@H]3CC[C@@H]4C[C@H](O)CC[C@]4(C)[C@H]3CC[C@]12C [NC10069],IC50,[1],< 0.5 µM
same,inhibition at 1 µM,[2],> 100%
same,IC50,[3],< 0.05 µM
same,inhibition at 1 µM,[4],< 20%
C[C@H](CCC(=O)N[C@H](c1ccccc1)[C@H](C)S(=O)(=O)O)[C@H]1CC[C@H]2[C@@H]3CC[C@@H]4C[C@H](O)CC[C@]4(C)[C@H]3CC[C@]12C [NC10070],IC50,[1],< 0.5 µM
same,inhibition at 1 µM,[2],> 100%
same,IC50,[3],< 0.05 µM
same,inhibition at 1 µM,[4],50 to 100%
C[C@H](CCC(=O)N[C@H](Cc1ccccc1)CS(=O)(=O)O)[C@H]1CC[C@H]2[C@@H]3CC[C@@H]4C[C@H](O)CC[C@]4(C)[C@H]3CC[C@]12C [NC10071],IC50,[1],< 0.5 µM
same,inhibition at 1 µM,[2],> 100%
same,IC50,[3],< 0.05 µM
same,inhibition at 1 µM,[4],< 20%
CC(C)[C@@H](CS(=O)(=O)O)NC(=O)CC[C@@H](C)[C@H]1CC[C@H]2[C@@H]3CC[C@@H]4C[C@H](O)CC[C@]4(C)[C@H]3CC[C@]12C [NC10072],IC50,[1],< 0.5 µM
same,inhibition at 1 µM,[2],20 to 50%
same,IC50,[3],< 0.05 µM
same,inhibition at 1 µM,[4],< 20%
CC(C)[C@H](CS(=O)(=O)O)NC(=O)CC[C@@H](C)[C@H]1CC[C@H]2[C@@H]3CC[C@@H]4C[C@H](O)CC[C@]4(C)[C@H]3CC[C@]12C [NC10073],IC50,[1],< 0.5 µM
same,inhibition at 1 µM,[2],50 to 100%
same,IC50,[3],0.05 to 0.1 µM
same,inhibition at 1 µM,[4],< 20%
C[C@H](CCC(=O)N[C@H](CS(=O)(=O)O)c1ccccc1)[C@H]1CC[C@H]2[C@@H]3CC[C@@H]4C[C@H](O)CC[C@]4(C)[C@H]3CC[C@]12C [NC10074],IC50,[1],< 0.5 µM
same,inhibition at 1 µM,[2],> 100%
same,IC50,[3],0.05 to 0.1 µM
same,inhibition at 1 µM,[4],< 20%
C[C@H](CCC(=O)N1CCC[C@@H]1CS(=O)(=O)O)[C@H]1CC[C@H]2[C@@H]3CC[C@@H]4C[C@H](O)CC[C@]4(C)[C@H]3CC[C@]12C [NC10076],IC50,[1],≥ 2 µM
same,inhibition at 1 µM,[2],> 100%
same,IC50,[3],0.05 to 0.1 µM
same,inhibition at 1 µM,[4],< 20%
C[C@H](CCC(=O)N1CCC[C@H]1CS(=O)(=O)O)[C@H]1CC[C@H]2[C@@H]3CC[C@@H]4C[C@H](O)CC[C@]4(C)[C@H]3CC[C@]12C [NC10077],IC50,[1],< 0.5 µM
same,inhibition at 1 µM,[2],> 100%
same,IC50,[3],< 0.05 µM
same,inhibition at 1 µM,[4],< 20%
C[C@H](CCC(=O)NC[C@H](C)S(=O)(=O)O)[C@H]1CC[C@H]2[C@@H]3CC[C@@H]4C[C@H](O)CC[C@]4(C)[C@H]3CC[C@]12C [NC10078],IC50,[1],< 0.5 µM
same,inhibition at 1 µM,[2],> 100%
same,IC50,[3],< 0.05 µM
same,inhibition at 1 µM,[4],< 20%
C[C@H](CCC(=O)NC[C@@H](C)S(=O)(=O)O)[C@H]1CC[C@H]2[C@@H]3CC[C@@H]4C[C@H](O)CC[C@]4(C)[C@H]3CC[C@]12C [NC10079],IC50,[1],0.5 to 1 µM
same,inhibition at 1 µM,[2],> 100%
same,IC50,[3],< 0.05 µM
same,inhibition at 1 µM,[4],20 to 50%
C[C@H](CCC(=O)N[C@@H](CO)CS(=O)(=O)O)[C@H]1CC[C@H]2[C@@H]3CC[C@@H]4C[C@H](O)CC[C@]4(C)[C@H]3CC[C@]12C [NC10080],IC50,[1],0.5 to 1 µM
same,inhibition at 1 µM,[2],> 100%
same,IC50,[3],0.1 to 0.2 µM
same,inhibition at 1 µM,[4],< 20%
C[C@H](CCC(=O)N[C@H](CO)CS(=O)(=O)O)[C@H]1CC[C@H]2[C@@H]3CC[C@@H]4C[C@H](O)CC[C@]4(C)[C@H]3CC[C@]12C [NC10081],IC50,[1],0.5 to 1 µM
same,inhibition at 1 µM,[2],> 100%
same,IC50,[3],< 0.05 µM
same,inhibition at 1 µM,[4],> 100%
C[C@H](CCC(=O)N[C@@H]1CCCC[C@@H]1S(=O)(=O)O)[C@H]1CC[C@H]2[C@@H]3CC[C@@H]4C[C@H](O)CC[C@]4(C)[C@H]3CC[C@]12C [NC10082],IC50,[1],< 0.5 µM
same,inhibition at 1 µM,[2],> 100%
same,IC50,[3],< 0.05 µM
same,inhibition at 1 µM,[4],> 100%
C[C@H](CCC(=O)N[C@H]1CCCC[C@H]1S(=O)(=O)O)[C@H]1CC[C@H]2[C@@H]3CC[C@@H]4C[C@H](O)CC[C@]4(C)[C@H]3CC[C@]12C [NC10083],IC50,[1],0.5 to 1 µM
same,inhibition at 1 µM,[2],> 100%
same,IC50,[3],< 0.05 µM
same,inhibition at 1 µM,[4],> 100%
C[C@H](CCC(=O)N[C@@H](C)CS(=O)(=O)O)[C@H]1CC[C@H]2[C@@H]3CC[C@@H]4C[C@H](O)CC[C@]4(C)[C@H]3CC[C@]12C [NC10084],IC50,[1],< 0.5 µM
same,inhibition at 1 µM,[2],< 20%
same,IC50,[3],≥ 0.2 µM
same,inhibition at 1 µM,[4],< 20%
C[C@H](CS(=O)(=O)O)NC(=O)CC[C@@H](C)[C@H]1CC[C@H]2[C@@H]3CC[C@@H]4C[C@H](O)CC[C@]4(C)[C@H]3CC[C@]12C [NC10085],IC50,[1],≥ 2 µM
same,inhibition at 1 µM,[2],< 20%
same,IC50,[3],≥ 0.2 µM
same,inhibition at 1 µM,[4],< 20%
CC(C)C[C@@H](CS(=O)(=O)O)NC(=O)CC[C@@H](C)[C@H]1CC[C@H]2[C@@H]3CC[C@@H]4C[C@H](O)CC[C@]4(C)[C@H]3CC[C@]12C [NC10086],IC50,[1],< 0.5 µM
same,inhibition at 1 µM,[2],< 20%
same,IC50,[3],≥ 0.2 µM
same,inhibition at 1 µM,[4],< 20%
CC(C)C[C@H](CS(=O)(=O)O)NC(=O)CC[C@@H](C)[C@H]1CC[C@H]2[C@@H]3CC[C@@H]4C[C@H](O)CC[C@]4(C)[C@H]3CC[C@]12C [NC10087],IC50,[1],0.5 to 1 µM
same,inhibition at 1 µM,[2],> 100%
same,IC50,[3],< 0.05 µM
same,inhibition at 1 µM,[4],> 100%
C[C@H](CCC(=O)NC1(CS(=O)(=O)O)CC1)[C@H]1CC[C@H]2[C@@H]3CC[C@@H]4C[C@H](O)CC[C@]4(C)[C@H]3CC[C@]12C [NC10088],IC50,[1],< 0.5 µM
same,inhibition at 1 µM,[2],< 20%
same,IC50,[3],≥ 0.2 µM
same,inhibition at 1 µM,[4],20 to 50%
C[C@H](CCC(=O)N1CC[C@H](S(=O)(=O)O)C1)[C@H]1CC[C@H]2[C@@H]3CC[C@@H]4C[C@H](O)CC[C@]4(C)[C@H]3CC[C@]12C [NC10089],IC50,[1],< 0.5 µM
same,inhibition at 1 µM,[2],20 to 50%
same,IC50,[3],≥ 0.2 µM
same,inhibition at 1 µM,[4],< 20%
C[C@H](CCC(=O)N1CC[C@@H](S(=O)(=O)O)C1)[C@H]1CC[C@H]2[C@@H]3CC[C@@H]4C[C@H](O)CC[C@]4(C)[C@H]3CC[C@]12C [NC10090],IC50,[1],0.5 to 1 µM
same,inhibition at 1 µM,[2],< 20%
same,IC50,[3],≥ 0.2 µM
same,inhibition at 1 µM,[4],< 20%
C[C@H](CCC(=O)N(CCN(C)C)CCS(=O)(=O)O)[C@H]1CC[C@H]2[C@@H]3CC[C@@H]4C[C@H](O)CC[C@]4(C)[C@H]3CC[C@]12C [NC10091],IC50,[1],0.5 to 1 µM
same,inhibition at 1 µM,[2],> 100%
same,IC50,[3],< 0.05 µM
same,inhibition at 1 µM,[4],> 100%
